Target: T1, human 11β-HSD1 (Homo sapiens, UniProt P28845)
T1 construct: expressed in transfected cells; host or cells: CHO cells (microsomes)
Test: Inhibition of microsomal preparation of 11β-HSD1 (SPA, Biological Test Example 1)
Format: biochemical
Details: for inhibition at 0.111 µM: 111 nM; for IC50: microsomes from CHO cells overexpressing human 11β-HSD1, read-out: IC50 Range; for inhibition at 0.1 µM: 100 nM
In short: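 Microsomes from CHO cells overexpressing human 11β-HSD1 reduced [3H]cortisone (160 nM in substrate solution, with 2 mM NADPH, HEPES pH 7.4) for 90 min at rt after a 10 min compound preincubation. Compounds were run as 8-point half-log DMSO dilutions from 0.1 mM. 18β-glycyrrhetinic acid stopped the reaction, and anti-cortisol antibody SPA beads read [3H]cortisol.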

T1 sequence (P28845 whole entry): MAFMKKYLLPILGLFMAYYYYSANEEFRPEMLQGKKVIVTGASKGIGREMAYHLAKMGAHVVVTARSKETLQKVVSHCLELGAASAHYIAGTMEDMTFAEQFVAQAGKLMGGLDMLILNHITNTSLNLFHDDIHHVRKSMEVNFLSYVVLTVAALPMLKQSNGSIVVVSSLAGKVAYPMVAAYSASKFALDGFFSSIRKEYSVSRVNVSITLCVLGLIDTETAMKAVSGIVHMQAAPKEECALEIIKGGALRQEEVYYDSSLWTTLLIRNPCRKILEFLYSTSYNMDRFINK

SMILES | inhibition at 0.111 µM [%] | IC50 [nM] | inhibition at 0.1 µM [%]
O=C(Cc1ccccc1C(F)(F)F)N1CCC2(CC1)C(=O)Nc1ccccc12 [EXAMPLE 47, 1′-(2-(2-(trifluoromethyl)phenyl)acetyl)spiro[indoline-3,4′-piperidin]-2-one] | 83.3 | < 100 | 
CN1C(=O)c2cccc(Cl)c2C12CCN(C(=O)/C=C/c1c(Cl)cccc1Cl)CC2 [EXAMPLE 26, (E)-7-chloro-1′-(3-(2,6-dichlorophenyl)acryloyl)-2-methylspiro[isoindoline-1,4′-piperidin]-3-one] | 79 | < 100 | 
CN1C(=O)C2(CCN(C(=O)/C=C/c3ccccc3C(F)(F)F)CC2)c2cc(C(N)=O)ccc21 [EXAMPLE 35, (E)-1-methyl-2-oxo-1′-(3-(2-(trifluoromethyl)phenyl)acryloyl)spiro[indoline-3,4′-piperidine]-5-carboxamide] | 41.4 | 100 to 1000 | 
CN1C(=O)c2cccc(Cl)c2C12CCN(C(=O)/C=C/c1ccccc1C(F)(F)F)CC2 [EXAMPLE 25, (E)-7-chloro-2-methyl-1′-(3-(2-(trifluoromethyl)phenyl)acryloyl)spiro[isoindoline-1,4′-piperidin]-3-one] | 95.3 | < 100 | 95.5
O=C(O)CC1CC2(CCN(C(=O)Cc3ccc(Cl)cc3C(F)(F)F)CC2)c2c(Cl)cccc21 (centres unmarked) [EXAMPLE 54, 2-(7-chloro-1′(2-(4-chloro-2-(trifluoromethyl)phenyl)acetyl)-2,3-dihydrospiro[indene-1,4′-piperidine]-3-yl)acetic acid] |  | < 100 | 71.7
COc1ccc2c(c1)CCNC21CCN(C(=O)/C=C/c2ccccc2C(F)(F)F)CC1 [EXAMPLE 30, (E)-1-(6-methoxy-3,4-dihydro-2H-spiro[isoquinoline-1,4′-piperidine]-1′-yl)-3-(2-(trifluoromethyl)phenyl)prop-2-en-1-one] | 94.6 | < 100 | 90.3
O=C(O)CC1CC2(CCN(C(=O)/C=C/c3cc(F)ccc3C(F)(F)F)CC2)c2c(Cl)cccc21 (racemic) [EXAMPLE 5, (±)-(E)-2-(7-chloro-1′-(3-(5-fluoro-2-(trifluoromethyl)phenyl)acryloyl)-2,3-dihydrospiro[indene-1,4′-piperidine]-3-yl)acetic acid] | 83.3 | < 100 | 
CN1C(=O)C2(CCN(C(=O)/C=C/c3ccccc3C(F)(F)F)CC2)c2cc(C(=O)NCCO)ccc21 [EXAMPLE 36, (E)-N-(2-hydroxyethyl)-1-methyl-2-oxo-1′-(3-(2-(trifluoromethyl)phenyl)acryloyl)spiro[indoline-3,4′-piperidine]-5-carboxamide] | 0.6 | 100 to 1000 | 
O=C(O)CC1CC2(CCN(C(=O)/C=C/c3cccc(Cl)c3Cl)CC2)c2c(Cl)cccc21 (racemic) [EXAMPLE 9, (±)-(E)-2-(7-chloro-1′-(3-(2,3-dichlorophenyl)acryloyl)-2,3-dihydrospiro[indene-1,4′-piperidine]-3-yl)acetic acid] | 77.8 | < 100 | 
O=C1NC2(CCN(C(=O)CCc3ccccc3C(F)(F)F)CC2)c2c(Cl)cc(Cl)cc21 [EXAMPLE 72, 5,7-dichloro-1′-(3-(2-(trifluoromethyl)phenyl)propanoyl)spiro[isoindoline-1,4′-piperidin]-3-one] | 82.4 | < 100 | 
O=C(O)CC1CC2(CCN(C(=O)/C=C/c3ccc(F)cc3C(F)(F)F)CC2)c2c(Cl)cccc21 (racemic) [EXAMPLE 4, (±)-(E)-2-(7-chloro-1′-(3-(4-fluoro-2-(trifluoromethyl)phenyl)acryloyl)-2,3-dihydrospiro[indene-1,4′-piperidine]-3-yl)acetic acid] | 94.2 | < 100 | 
O=C1NC2(CCN(C(=O)Cc3ccccc3C(F)(F)F)CC2)c2c(Br)cccc21 [EXAMPLE 49, 7-bromo-1′-(2-(2-(trifluoromethyl)phenyl)acetyl)spiro[isoindoline-1,4′-piperidin]-3-one] | 49.2 | 100 to 1000 | 

Now from value to compound:

inhibition at 0.111 µM [%] | IC50 [nM] | inhibition at 0.1 µM [%] | SMILES
59.2 | < 100 |  | CCOC(=O)CC1CC2(CCN(C(=O)N(CC)Cc3c(F)cccc3Cl)CC2)c2c(Br)cccc21 (centres unmarked) [EXAMPLE 81]
19.9 | 100 to 1000 |  | CCOC(=O)CC1CC2(CCN(C(=O)NCc3ccccc3OC(C)C)CC2)c2c(Br)cccc21 (centres unmarked) [EXAMPLE 95, Ethyl 2-(7-bromo-1′-(2-isopropoxybenzylcarbamoyl)-2,3-dihydrospiro[indene-1,4′-piperidine]-3-yl)acetate]
88.7 | < 100 |  | CN(Cc1ccccc1F)C(=O)N1CCC2(CC1)CC(CC(=O)O)c1cccc(Br)c12 (centres unmarked) [EXAMPLE 104, 2-(7-bromo-1′((2-fluorobenzyl)(methyl)carbamoyl)-2,3-dihydrospiro[indene-1,4′-piperidine]-3-yl)acetic acid]
70.5 | < 100 |  | CCOC(=O)CC1CC2(CCN(C(=O)NCc3ccccc3C(F)(F)F)CC2)c2c(Br)cccc21 (centres unmarked) [EXAMPLE 92, Ethyl 2-(7-bromo-1′-(2-(trifluoromethyl)benzylcarbamoyl)-2,3-dihydrospiro[indene-1,4′-piperidine]-3-yl)acetate]
28.6 | 100 to 1000 |  | CCOC(=O)CC1CC2(CCN(C(=O)NCc3ccccc3OCC)CC2)c2c(Br)cccc21 (centres unmarked) [EXAMPLE 82, Ethyl 2-(7-bromo-1′-(2-ethoxybenzylcarbamoyl)-2,3-dihydrospiro[indene-1,4′-piperidine]-3-yl)acetate]
64.1 | < 100 |  | Cc1cccc(Cl)c1CNC(=O)N1CCC2(CC1)CC(CC(=O)O)c1cccc(Br)c12 (centres unmarked) [EXAMPLE 91, 2-(7-bromo-1′-(2-chloro-6-methylbenzylcarbamoyl)-2,3-dihydrospiro[indene-1,4′-piperidine]-3-yl)acetic acid]
60 | < 100 |  | COC(=O)c1ccc2c(c1)C1(CCN(C(=O)CCc3ccccc3C(F)(F)F)CC1)C(=O)N2C [EXAMPLE 76, 1-methyl-2-oxo-1′-(3-(2-(trifluoromethyl)phenyl)propanoyl)spiro[indoline-3,4′-piperidine]-5-carboxylate]
 | < 100 |  | O=C1CC2(CCN(C(=O)COc3ccccc3C(F)(F)F)CC2)c2c(Br)cccc21 [EXAMPLE 106, 7-bromo-1′-(2-(2-(trifluoromethyl)phenoxy)acetyl)spiro[indene-1,4′-piperidin]-3(2H)-one]
18.5 | 100 to 1000 |  | CCOC(=O)CC1CC2(CCN(C(=O)NCc3ccccc3S(C)(=O)=O)CC2)c2c(Br)cccc21 (centres unmarked) [EXAMPLE 93, Ethyl 2-(7-bromo-1′-(2-(methylsulfonyl)benzylcarbamoyl)-2,3-dihydrospiro[indene-1,4′-piperidine]-3-yl)acetate]
58.7 | < 100 |  | CCOC(=O)CC1CC2(CCN(C(=O)NCc3ccccc3C)CC2)c2c(Br)cccc21 (centres unmarked) [EXAMPLE 86, Ethyl 2-(7-bromo-1′(2-methylbenzylcarbamoyl)-2,3-dihydrospiro[indene-1,4′-piperidine]-3-yl)acetate]
10.9 | 100 to 1000 |  | O=C(O)CC1CC2(CCN(C(=O)NCc3cc(F)c(F)cc3F)CC2)c2c(Br)cccc21 (centres unmarked) [EXAMPLE 83, 2-(7-bromo-1′-(2,4,5-trifluorobenzylcarbamoyl)-2,3-dihydrospiro[indene-1,4′-piperidine]-3-yl)acetic acid]

From patent publication US8383629B2, “Inhibitors of 11β-hydroxysteroid dehydrogenase type 1” (Vitae Pharmaceuticals, Inc., priority 2008, dated 2013)
